The test system of this test is rat liver microsomes. Description: Inhibition of ferrous ion-stimulated formation of maliondialdehyde (lipid peroxidation) in rat liver microsomes. The note with it: ferrous sulfate 1 mM, 37° C. for 1 hour, test compound in DMSO, read-out: IC50, inhibition of production of MDA (as measured by the MDA-TBA adduct). Format: biochemical. As for the experimental part:
The in vitro antioxidant activity of Compound MH-1 was evaluated by measuring its inhibitory effect on the ferrous ion-stimulated formation of maliondialdehyde (“MDA”), an end product of lipid peroxidation, in rat liver microsomes. The antioxidant activity of Compound MH-1 was compared with the in vitro antioxidant activity of α-tocopherol, a known antioxidant. A modified procedure originally described in Bernheim et al., “The Reaction Between Thiobarbituric Acid and the Oxidation Products of Certain Lipids,” J. Biol. Chem., 174:257-264 (1948) and Wills, “Lipid Peroxide Formation in Microsomes,” Biochem. J., 113:325-332 (1969), which are hereby incorporated by reference, was used to carry out the assay.
Freshly harvested rat livers (100 mg/ml) were homogenized in Tris-KCl buffer (0.05M, pH 7.4). The microsomal fraction was isolated by differential centrifugation (40,000 rpm; 106,000 g) and resuspended in Tris-KCl (100 mg/ml, initial concentration). The microsomal suspension was incubated with or without the test compound (Compound MH-1 in DMSO, 0.0-0.5mM or α-tocopherol in dimethylsulfoxide, 0.0-0.6 mM) at 37° C. for 3 minutes. […] Maliondialdeyde-TBA adduct concentrations in the butanol extract were measured by fluorescence spectroscopy (emission 553 nm, excitation 532 nm). […]

Regarding `Cc1c(C)c2c(c(C)c1O)CC[C@@](C)(CCC[C@H](C)CCC[C@H](C)CCCC(C)C)O2` [α-tocopherol], the IC50 amounted to 307 µM.
Take `Cc1c(C)c2c(c(C)c1OC(=O)CCCC[C@@H]1CCSS1)CC[C@@](C)(CC[C@H](C)CCC[C@H](C)CCCC(C)C)O2` [Compound MH-1]: the IC50 was 266 µM.

The record behind these values is patent US20030187059A1, “Methods and compounds useful in inhibiting oxidative and/or free radical damage and in the treatment and prevention of disease” (priority 2002, published 2003).
